Measurements as given in US5185347A, “Piperidine compounds and antiulcer composition containing the same” (Meiji Seika Kaisha Ltd., priority 1990, dated 1993).

Key:
[1] = test system: Water Immersion Restraint Stress-Induced Ulcer; assay: Test on Water Immersion Restraint Stress-Induced Ulcer; type: in vivo, Wister male rat; settings: 30 mg/5 ml/kg-b.w. in 0.5% CMC, 1 hour before stress, water immersion restraint 6 hours, 20 to 22° C., ulcer index = sum of longer diameters (mm); for inhibition in vivo at 30 mg/kg: Rattus norvegicus, read-out: Percent Inhibition on Ulceration
Experimental: 1) Test on Water Immersion Restraint Stress-Induced Ulcer:
A 11-week-old Wister male rat having been deprived of food for 18 hours was restrained in a cage and immersed chest-deep in water at 20 to 22° C. for 6 hours to impose a stress. The rat taken out of water was sacrificed by cervical dislocation, the stomach removed, 5 ml of a 5% formalin aqueous solution poured into the stomach, and the whole stomach was soaked in the same solution for 30 minutes. The thus fixed sample was opened along the greater curvature. The longer diameter (mm) of ulcers formed was measured with a slide caliper, and the sum was taken as an ulcer index. Each of test compounds shown in Table 1 below was suspended in a 0.5% carboxymethylcellulose (CMC) solution and administered to the rat (test group) at a dose level of 30 mg/5 ml/kg-b.w. 1 hour before imposition of a stress. Only a 0.5% CMC solution (5 ml) was administered to a control group. A percent inhibition of ulceration was obtained from equation: [formula]

Toxicity (oral LD50) = settings: in vivo, orally administering, species not given
Excerpt: The compounds of the present invention are of low toxicity.

Ethanol-Induced Ulcer = assay: Ethanol-Induced Ulcer; type: in vivo, Donryu male rat; settings: orally, 30 mg/5 ml/kg-b.w. in 0.5% CMC, one hour before 5 ml/kg-b.w. of 100% ethanol
Experimental: 2) Ethanol-Induced Ulcer:
A Donryu male rat having been deprived of food for 48 hours and of water for 24 hours orally received 5 ml/kg-b.w. of 100% ethanol. One hour later, the rat was sacrificed in the same manner as described in (1) above, the stomach removed and treated in the same manner as above. The test compound (the compound of Example 2) was suspended in a 0.5% CMC solution and orally administered to the rat at a dose of 30 mg/5 ml/kg-b.w. one hour before administration of ethanol.

| Molecule | inhibition in vivo at 30 mg/kg [1] [%] | also measured |
| --- | --- | --- |
| 5(6)-(2-Acetylamino-2-ethoxycarbonyl)ethyl-l-[2-(2,2,6,6-tetramethylpiperidin-1-yl)]ethyl-2-[2-(2,2,6,6-tetramethylpiperidin-1-yl)ethylthio]benzimidazole [Example 12] | – | Percent Inhibition on Ulceration [1]: 87% |
| COc1ccc2nc(SCCN3C(C)(C)CCCC3(C)C)[nH]c2c1 [Example 1, 5-Methoxy-2-[2-(2,2,6,6-tetramethylpiperidin-1-yl)ethylthio]benzimidazole] | 92 | LD50 (Toxicity (oral LD50)): > 1000 mg/kg |
| CCOC(=O)C(Cc1ccc2[nH]c(SCCN3C(C)(C)CCCC3(C)C)nc2c1)NC(=O)c1ccc(Cl)cc1 (stereo not shown) [Example 2] | 97 | inhibition on erosion (Ethanol-Induced Ulcer): 80%; LD50 (Toxicity (oral LD50)): > 1000 mg/kg |
| CC1(C)CCCC(C)(C)N1CCSc1nc2cc(CC(NC(=O)c3ccc(Cl)cc3)C(N)=O)ccc2[nH]1 (stereo not shown) [Example 3, 5-[2-Carbamoyl-2-(p-chlorobenzoyl)amino]ethyl-2-[2-(2,2,6,6-tetramethylpiperidin-1-yl)ethylthio]benzimidazole] | 62 | – |
| CC1(C)CCCC(C)(C)N1CCSc1nc2cc(CC(NC(=O)c3ccc(Cl)cc3)C(=O)O)ccc2[nH]1 (stereo not shown) [Example 4, 5-[2-Carboxy-2-(p-chlorobenzoyl)amino]ethyl-2-[2-(2,2,6,6-tetramethylpiperidin-1-yl)ethylthio]benzimidazole] | 40 | – |
| CCOC(=O)C(Cc1ccc2[nH]c(SCCN3C(C)(C)CCCC3(C)C)nc2c1)NC(C)=O (stereo not shown) [Example 5, 5-[2-Acetylamino-2-ethoxycarbonyl)ethyl-2-[2-(2,2,6,6-tetramethylpiperidin-1-yl)ethylthio]benzimidazole] | 97 | LD50 (Toxicity (oral LD50)): > 1000 mg/kg |
| Cc1ccc2nc(SCCN3C(C)(C)CCCC3(C)C)[nH]c2c1 [Example 6, 5-Methyl-2-[2-(2,2,6,6-tetramethylpiperidin-1-yl)ethylthio]benzimidazole] | 95 | – |
| CC1(C)CCCC(C)(C)N1CCSc1nc2cc(CO)ccc2[nH]1 [Example 7] | 97 | – |
| COC(=O)c1ccc2[nH]c(SCCN3C(C)(C)CCCC3(C)C)nc2c1 [Example 8] | 98 | – |
| CC1(C)CCCC(C)(C)N1CCSc1nc2ccccc2[nH]1 [Example 9] | 97 | – |
| Cn1c(SCCN2C(C)(C)CCCC2(C)C)nc2ccccc21 [Example 10] | 100 | – |
| CC1(C)CCCC(C)(C)N1CCSc1nc2ccccc2n1Cc1ccccc1 [Example 11] | 95 | – |
